From the supplement of paper PMC10784567
± gives the standard deviation of the averaged measurements.

Compound: C=C1C[C@H]2C=Nc3cc(OCCCCCOc4cc5c(cc4OC)C(=O)N4CC(=C)C[C@H]4C=N5)c(OC)cc3C(=O)N2C1 [SG2057]
Assay: absolute IC50 (cell viability, CellTiter-Glo); higher = less potent
Details: treatment time: 3 days
Procedure: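 Large cancer cell line panel screens in 384-well plates. Cells were treated for 3 days with a 9-point dose titration of the free PBD dimer SG2057; viability was read with CellTiter-Glo. Absolute IC50 came from a four-parameter Hill fit normalised to the median of vehicle (DMSO) wells. Several independent screens (projects) per cell line are averaged; values in µM, lowest-dose floor about 1.524e-5 µM.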

| Test System | absolute IC50 [nM] |
| --- | --- |
| PAN 02 | 1.39 |
| PAN 02 X1 | 0.839 |
| PC-9 | 5.48 |
| PE/CA-PJ15 | 0.216 |
| PEO1 | 0.538 ± 0.19 |
| PK-1 | 1.53 ± 1.3 |
| PK-45H | 1.2 ± 0.94 |
| PK-45P | 6.29 ± 1.9 |
| PL45 | 0.402 |
| PL-21 | 1.38 ± 1.2 |
| PLC/PRF/5 | 8.3 |
| PMF-ko14 | 2.86 ± 5.1 |
| Panc 02.03 | 2.51 ± 3.8 |
| Panc 05.04 | 1.68 ± 0.4 |
| Panc 08.13 | 2.7 |
| Panc 10.05 | 0.383 ± 0.11 |
| Pfeiffer | 1.21 ± 2 |
| QGP-1 | 5.47 ± 0.39 |
| RC-K8 | 0.667 ± 1 |
| RCM-1 | 3.33 ± 5.4 |
| RERF-GC-1B | 1.07 ± 1 |
| RERF-LC-KJ | 1.65 ± 2.5 |
| RERF-LC-MS | 0.212 ± 0.15 |
| RERF-LC-OK | 0.729 ± 1 |
| RKO-E6 | 1.32 ± 2.1 |

| Test System | absolute IC50 [nM] |
| --- | --- |
| RL95-2 | 1.9 |
| RMUG-S | 1.92 ± 0.051 |
| RPMI 2650 | 0.539 ± 0.27 |
| RT4 | 2.35 |
| RT-112 | 1.53 ± 2.8 |
| RVH-421 | 0.569 |
| Reh | 0.757 |
| Renca | 10.3 ± 12 |
| S-117 | 2.29 |
| SBC-7 | 0.53 |
| SCLC-21H | 0.788 |
| SCLC-22H | 0.905 |
| SF268 | 0.424 ± 0.77 |
| SF539 | 0.27 ± 0.54 |
| SH-SY5Y | 0.142 |
| SIMA | 0.863 |
| SISO | 0.153 |
| SJCRH30 | 0.422 |
| SJCRH30 (RC13) | 0.187 |
| SJSA-1 | 0.0954 |
| SK-BR-3 | 0.69 ± 0.71 |
| SK-CO-1 | 0.201 ± 0.19 |
| SK-HEP-1 | 0.205 |
| SK-MEL-1 | 1.11 ± 0.28 |
| SK-MEL-2 | 1.16 ± 0.55 |

| Test System | absolute IC50 [nM] |
| --- | --- |
| SK-MEL-31 | 3.78 |
| SK-N-AS | 0.187 |
| SK-N-BE(2) | 1.64 |
| SK-N-DZ | 5.04 |
| SK-N-FI | 8.79 ± 11 |
| SK-N-SH | 0.114 |
| SK-UT-1B | < 0.0152 |
| SKG-II | 0.0743 |
| SKG-IIIa | 17.7 |
| SKG-IIIb | 1.79 |
| SM1 | 0.444 |
| SNB-19 | 0.187 |
| SNG-M | 0.285 ± 0.16 |
| SNU-1 | 1.89 |
| SNU-16 | 0.344 ± 0.1 |
| SNU-182 | 1.36 ± 1.5 |
| SNU-216 | 1.57 ± 2.9 |
| SNU-387 | 5.76 |
| SNU-449 | 5.84 |
| SNU-475 | 2.56 ± 3.8 |
| SNU-484 | 0.327 ± 0.11 |
| SNU-601 | 0.0897 ± 0.046 |
| SNU-620 | 2.3 ± 3.1 |
| SNU-638 | 0.137 ± 0.046 |
| SNU-668 | 0.573 |

| Test System | absolute IC50 [nM] |
| --- | --- |
| SNU-719 | 3.72 ± 4 |
| SNU-C1 | 3.4 ± 0.35 |
| SU-DHL-6 | 0.536 ± 0.73 |
| SU.86.86 | 0.733 ± 0.48 |
| SUM 52PE | 2.62 ± 1.5 |
| SUM 149PT | 1.68 ± 1.6 |
| SUM 159PT | 0.681 |
| SW 403 | 3.64 ± 1.6 |
| SW 480 | 0.462 ± 0.51 |
| SW 626 | 3.67 |
| SW 780 | 0.754 |
| SW 837 | 4.01 ± 0.21 |
| SW 900 | 3.18 |
| SW 948 | 3.39 ± 3.9 |
| SW 1463 | 7.83 ± 8.2 |
| SW 1990 | 0.516 ± 0.22 |
| SiHa | 1.56 |
| T84 | 2.92 ± 2.4 |
| T98G | 3.18 ± 3.7 |
| T.T | 1.93 |
| TC-1 | 0.384 |
| TC-71 | < 0.0152 |
| TK-10 | 2.7 ± 2.1 |
| TOV-21G | 0.261 |
| TRAMP-C1 | 0.345 |

| Test System | absolute IC50 [nM] |
| --- | --- |
| TRAMP-C2 | 0.154 |
| TYK-nu | 0.113 ± 0.18 |
| Toledo | 0.279 ± 0.28 |
| U266B1 | 2.64 ± 2.4 |
| U-2 OS | 0.53 |
| U-87 MG | 3.32 |
| U-2932 | 0.213 ± 0.23 |
| UACC-62 | 0.77 ± 0.36 |
| UACC-257 | 2.41 |
| UCSD-242l | 1.29 ± 0.84 |
| UKE-1 | 0.0189 ± 0.0056 |
| UM-RC-6 | 0.651 |
| UM-RC-7 | 0.672 |
| UM-UC-1 | 0.557 |
| UMC-11 | 14.8 |
| VMRC-LCD | 4.27 |
| VMRC-RCW | 3.72 |
| VP229 | 3 ± 3.4 |
| VP267 | 4.86 |
| WM-115 | 0.436 ± 0.57 |
| WSU-DLCL2 | 0.358 ± 0.36 |
| WiDr | 1.38 ± 0.42 |
| YAPC | 1.16 ± 0.74 |
| huH-1 | 2.28 |
